In ChEMBL document CHEMBL1221278, “Design, synthesis, and cholesterol-lowering efficacy for prodrugs of berberrubine” (Bioorg Med Chem, 2010):
Calls of active or inactive are those of the source. The rule behind the calls is not given here.

Columns and labels:
[1] = tested on: HepG2; assay: Upregulation of LDLR mRNA expression in human HepG2 cells by RT-PCR; assay type: functional, cell-based
[2] = Lipophilicity, log P of the compound; assay type: physicochemical; details: octanol/water
[3] = tested on: Rattus norvegicus; assay: Toxicity in high fat high cholesterol diet fed Sprague-Dawley rat hyperlipidemic model assessed as weight loss at 100 mg/kg, po qd for 28 days; details: in vivo, 672 h
[4] = tested on: Rattus norvegicus; assay: Toxicity in high fat high cholesterol diet fed Sprague-Dawley rat hyperlipidemic model assessed as reduction in food intake at 100 mg/kg, po qd for 28 days; details: in vivo, 672 h
[5] = tested on: Rattus norvegicus; assay: Toxicity in high fat high cholesterol diet fed Sprague-Dawley rat hyperlipidemic model assessed as liver of kidney function abnormalities at 100 mg/kg, po qd for 28 days; details: in vivo, 672 h
[6] = tested on: Rattus norvegicus; assay: Hypolipidemic activity in high fat high cholesterol diet fed Sprague-Dawley rat hyperlipidemic model assessed as reduction in LDL cholesterol 100 mg/kg, po qd for 28 days; parameters: scale not given: the % may be the effect or the level left
[7] = tested on: Rattus norvegicus; assay: Hypolipidemic activity in high fat high cholesterol diet fed Sprague-Dawley rat hyperlipidemic model assessed as reduction in total cholesterol 100 mg/kg, po qd for 28 days; parameters: scale not given: the % may be the effect or the level left

Row | Structure (SMILES) | Activity [1] | logP [2] | also measured
1 | CCOC(=O)Oc1c(OC)ccc2cc3[n+](cc12)CCc1cc2c(cc1-3)OCO2 | inactive | -1.18 | 
2 | COc1ccc2cc3[n+](cc2c1OCOC(=O)C(C)(C)C)CCc1cc2c(cc1-3)OCO2 | inactive | -0.06 | 
3 | CCCC(=O)Oc1c(OC)ccc2cc3[n+](cc12)CCc1cc2c(cc1-3)OCO2 | inactive | -0.43 | 
4 | CCCCC(=O)Oc1c(OC)ccc2cc3[n+](cc12)CCc1cc2c(cc1-3)OCO2 | inactive | 0.1 | 
5 | CCCCCCCCCC(=O)Oc1c(OC)ccc2cc3[n+](cc12)CCc1cc2c(cc1-3)OCO2 | inactive | 2.74 | 
6 | CCCCCCC(=O)Oc1c(OC)ccc2cc3[n+](cc12)CCc1cc2c(cc1-3)OCO2 | inactive | 1.16 | 
7 | COc1ccc2cc3[n+](cc2c1OC(=O)c1ccccc1)CCc1cc2c(cc1-3)OCO2 | inactive | 0.58 | 
8 | CCCCCCCCCCCCCCCCCC(=O)Oc1c(OC)ccc2cc3[n+](cc12)CCc1cc2c(cc1-3)OCO2 | inactive | 6.98 | 
9 | CCCCCCCCCCCCCCCC(=O)Oc1c(OC)ccc2cc3[n+](cc12)CCc1cc2c(cc1-3)OCO2.[Cl-] | inactive | 5.91 | Activity [3]: Non-toxic; Activity [4]: Non-toxic; Activity [5]: Non-toxic; Activity [6]: 45.5%; Activity [7]: 35.8%
10 | COc1ccc2cc3[n+](cc2c1OCOC(=O)c1ccccc1)CCc1cc2c(cc1-3)OCO2 | inactive | 0.97 | 
11 | CCCCCCCCCCCC(=O)Oc1c(OC)ccc2cc3[n+](cc12)CCc1cc2c(cc1-3)OCO2 | inactive | 3.8 | 
12 | CCCCCCCC(=O)Oc1c(OC)ccc2cc3[n+](cc12)CCc1cc2c(cc1-3)OCO2 | inactive | 1.69 | 
13 | COc1ccc2cc3[n+](cc2c1OC)CCc1cc2c(cc1-3)OCO2.[Cl-] [BERBERINE CHLORIDE] |  | -0.92 | Activity [6]: 38%; Activity [7]: 27.4%
14 | COc1ccc2cc3[n+](cc2c1OC(=O)/C=C/c1ccccc1)CCc1cc2c(cc1-3)OCO2 | inactive | 1.03 | 
15 | COc1ccc2cc3[n+](cc2c1OC(=O)C(C)(C)C)CCc1cc2c(cc1-3)OCO2 | inactive | -0.25 | 
16 | COc1ccc2cc3[n+](cc2c1O)CCc1cc2c(cc1-3)OCO2 [BERBERRUBINE CHLORIDE] |  | -1.06 | 
